Values quoted from earlier work in US12409131B2, “Transdermal delivery of dronabinol” (Pike Therapeutics USA, Inc., priority 2019, dated 2025).

Columns and labels:
[1] = in 96 hrs through human cadaver skin, U.S. Pat. No. 8,449,908

In the case of `CCCCCc1cc(O)c2c(c1)OC(C)(C)[C@@H]1CCC(C)=C[C@@H]21` (relative stereo) [dronabinol, (6aR-trans)-6a,7,8,10a-tetrahydro-6,6,9-trimethyl-3-pentyl-6H-dibenzo[b,d]pyran-1-ol], the cumulative amount delivered [1] is listed as 10000 ng and the Oral bioavailability is listed as 10-20%.
